# In patent publication US5219884A, “Immunosuppressant” (Taito Co., Ltd., priority 1990, dated 1993):
# Read-outs that look alike come from different tables or passages of the source.
# What was measured:
# [1] = tested on: IL2-dependent mouse cell line CTLL-2; assay: suppression of IL-2 induced 3H-thymidine incorporation of CTLL-2; format: cell-based; conditions: 72 hrs, second run (control 30168 cpm)
# Procedure: IL2-dependent mouse cell line CTLL-2 cells were suspended in the RPMI1640 culture medium supplemented with 30% FCS to a concentration of 2×10^5 cells/ml. The suspension (50 μl) and 50 μl of concanavalin A-stimulated rat spleen cell culture supernatants containing IL2 were added to each well of 96-well microculture plates in which 100 μl of the test substance had been placed. After culturing at 37° C. in an atmosphere of 5% carbon dioxide for 20, 44, or 68 hours, 0.5 μCi/well of ^3 H-thymidine was added, and cultured for 4 hours under the same conditions. After termination of the culture, the cells were harvested by a cell harvester, and the radioactivity incorporated into the cells was measured by a liquid scintillation counter.
# mouse L929 cells = assay: cytotoxicity to mouse L929 cells; format: cell-based; conditions: 550 nm
# Procedure: (§1) Cytotoxicity to mouse L929 cells was assayed as follows:
# (§2) L929 cells were suspended to the concentration of 1.5×10^5 cells/ml in the F12 culture medium supplemented with 10% FCS. One hundred μl of the suspension was added to each well of 96-well microculture plates, and cultured at 37° C. in an atmosphere of 5% carbon dioxide for 24 hours, to which 100 μl of the test solution was added and cultured for further 48 hours. After the culture, 100 μl of the supernatant was removed and the absorbancy at 550 nm was measured in the same way as the colormetry using MTT in Experimental Example 1. The percent suppression was calculated by the following formula used as the index of cytotoxicity. [formula]
# [2] = cytotoxicity to mouse L929 cells; format: cell-based; conditions: mouse, l929 cells, read-out: Suppression
# Procedure: as §1, §2
# U937 = assay: in vitro; format: cell-based, human
# Procedure: (§3) Cytotoxicity to human tumor cell lines was examined as follows:
# (§4) Cells of human cell lines, K562, MOLT4, U937, HL60, KATOIII, KB, PC-6, PC-14 and CCRF-CEM were separately suspended to the concentration of 2×10^5 cells/ml in the RPMI1640 culture medium supplemented with 20% FCS. Fifty μl of this suspension was added to each well of 96-well microculture plates to which 50 μl of the test solution had been added. After culturing at 37° C. in an atmosphere of 5% carbon dioxide for 72 hours, the absorbancy at 550 nm was measured in the same way as the colorimetry using MTT in Experimental Example 1, and the percent suppression was calculated in the same manner as in Experimental Example 14, which was used as the index of cytotoxicity.
# PC-14 = assay: in vitro; format: cell-based, human
# Procedure: as §3, §4
# KB = assay: in vitro; format: cell-based, human
# Procedure: as §3, §4
# HL60 = assay: in vitro; format: cell-based, human
# Procedure: as §3, §4
# CCRF-CEM = assay: in vitro; format: cell-based, human
# Procedure: as §3, §4
# in vitro = format: cell-based, human; conditions: human, read-out: Suppression
# Procedure: as §3, §4
# K562 = assay: in vitro; format: cell-based, human
# Procedure: as §3, §4
# MOLT4 = assay: cytotoxicity to tumor cell line MOLT4; format: cell-based, human
# Procedure: as §3, §4
# [3] = cytotoxicity to tumor cell line MOLT4; format: cell-based, human; conditions: human, molt4 cells, read-out: Suppression
# Procedure: as §3, §4
compound,measurement,setting,value
CCCCCCC(O)CCCCCC/C=C/CC1OC(=O)C(N)(CO)C1O (stereo not shown) [Example 8],3H-thymidine uptake,[1]; 0.1 μg/ml,7262 cpm
same,3H-thymidine uptake,[1]; 1 μg/ml,1591 cpm
same,inhibition at 0.1 µg/mL,"[1]; Mus musculus, CTLL-2, 0.1 μg/ml, read-out: Suppression",76.1%
same,inhibition at 1 µg/mL,"[1]; Mus musculus, CTLL-2, 1 μg/ml",94.9%
same,Absorbancy,mouse L929 cells; 1 μg/ml,0.817
same,Absorbancy,mouse L929 cells; 10 μg/ml,0.738
same,Absorbancy,mouse L929 cells; 100 μg/ml,0.023
same,cytotoxicity at 48 h,[2]; 1 μg/ml,0%
same,cytotoxicity at 48 h,[2]; 10 μg/ml,0%
same,cytotoxicity at 48 h,[2]; 100 μg/ml,96%
same,Absorbancy,U937; 0.1 μg/ml,0.590
same,Absorbancy,U937; 1.0 μg/ml,0.580
same,Absorbancy,U937; 10.0 μg/ml,0.513
same,Absorbancy,PC-14; 0.1 μg/ml,0.452
same,Absorbancy,PC-14; 1.0 μg/ml,0.425
same,Absorbancy,PC-14; 10.0 μg/ml,0.326
same,Absorbancy,KB; 0.1 μg/ml,0.741
same,Absorbancy,KB; 1.0 μg/ml,0.749
same,Absorbancy,KB; 10.0 μg/ml,0.706
same,Absorbancy,HL60; 0.1 μg/ml,0.434
same,Absorbancy,HL60; 1.0 μg/ml,0.445
same,Absorbancy,HL60; 10.0 μg/ml,0.418
same,Absorbancy,CCRF-CEM; 0.1 μg/ml,0.720
same,Absorbancy,CCRF-CEM; 1.0 μg/ml,0.694
same,Absorbancy,CCRF-CEM; 10.0 μg/ml,0.665
same,cytotoxicity at 72 h,"in vitro; ccrf-cem cells, 0.1 μg/ml",0%
same,cytotoxicity at 72 h,"in vitro; ccrf-cem cells, 1.0 μg/ml",0%
same,cytotoxicity at 72 h,"in vitro; ccrf-cem cells, 10.0 μg/ml",3.9%
same,cytotoxicity at 72 h,"in vitro; hl60 cells, 0.1 μg/ml",16.9%
same,cytotoxicity at 72 h,"in vitro; hl60 cells, 1.0 μg/ml",14.8%
same,cytotoxicity at 72 h,"in vitro; hl60 cells, 10.0 μg/ml",19.9%
same,cytotoxicity at 72 h,"in vitro; k562 cells, 0.1 μg/ml",15.1%
same,cytotoxicity at 72 h,"in vitro; k562 cells, 1.0 μg/ml",16.6%
same,cytotoxicity at 72 h,"in vitro; k562 cells, 10.0 μg/ml",22.6%
same,cytotoxicity at 72 h,"in vitro; kb cells, 0.1 μg/ml",0%
same,cytotoxicity at 72 h,"in vitro; kb cells, 1.0 μg/ml",0%
same,cytotoxicity at 72 h,"in vitro; kb cells, 10.0 μg/ml",3.3%
same,cytotoxicity at 72 h,"in vitro; pc-14 cells, 0.1 μg/ml",4.6%
same,cytotoxicity at 72 h,"in vitro; pc-14 cells, 1.0 μg/ml",10.3%
same,cytotoxicity at 72 h,"in vitro; pc-14 cells, 10.0 μg/ml",31.2%
same,cytotoxicity at 72 h,"in vitro; u937 cells, 0.1 μg/ml",0%
same,cytotoxicity at 72 h,"in vitro; u937 cells, 1.0 μg/ml",0.5%
same,cytotoxicity at 72 h,"in vitro; u937 cells, 10.0 μg/ml",12%
same,Absorbancy,K562; 0.1 μg/ml,0.327
same,Absorbancy,K562; 1.0 μg/ml,0.321
same,Absorbancy,K562; 10.0 μg/ml,0.298
same,Absorbancy,MOLT4; 0.1 μg/ml,0.142
same,Absorbancy,MOLT4; 1.0 μg/ml,0.137
same,Absorbancy,MOLT4; 10.0 μg/ml,0.133
same,cytotoxicity at 72 h,[3]; 0.1 μg/ml,2.1%
same,cytotoxicity at 72 h,[3]; 1.0 μg/ml,5.5%
same,cytotoxicity at 72 h,[3]; 10.0 μg/ml,8.3%
